Experimental data taken from US4734420A, “Anti-hypertensive agents” (priority 1980, dated 1988).
pIC50: −log10 of the molar value. One block for each compound: values may come before it.

Assays:
Human urinary ACE = Human urinary ACE (Homo sapiens, UniProt P12821); test: biochemical; conditions: read-out: I50 value
Text: The role of ACE in the pathogenesis of hypertension has prompted a search for inhibitors of the enzyme that could act as antihypertensive drugs. See for example U.S. Pat. Nos. 3,891,616, 3,947,575, 4,052,511 and 4,053,651. […]. No. 4,046,889 to Ondetti et al., issued Sept. 6, 1977, and in scientific articles by Cushman, D. W. et al., Biochemistry 16, 5484 (1977), and by Ondetti, M. et al., Science 196, 441 (1977). […]. These factors include the source of enzyme, its purity, the substrate used and its concentration, and the composition of the assay buffer. All I50 data reported herein have been performed with the same assay system and same enzyme (human urinary ACE) and with an approximately 1/2 Km level of substrate and are therefore internally consistent. Discrepancies with data obtained by other workers may be observed. Indeed such discrepancies do exist in the literature, for unknown reasons. See, for example, the I50 values for BPP9a reported by Cushman, D. W., et al., Experientia 29, 1032 (1973) and by Dorer, F. E., et al., Biochim. Biophys. Acta 429, 220 (1976).
The inhibitory potency of N^α -[3-(L-α-glutamylthio)-2-D-methyl-propanoyl]-L-proline in vitro was measured in the following assay. […] The enzyme was assayed in 0.05M Hepes buffer, pH 8.0 containing 0.1M NaCl and 0.75M Na2 SO4. […]

ACE [1] = conditions: statement of belief; cited from earlier work
ACE [2] = conditions: oral, most patients; cited from earlier work

Human urinary ACE, sequence (P12821 30-1232 limits assumed): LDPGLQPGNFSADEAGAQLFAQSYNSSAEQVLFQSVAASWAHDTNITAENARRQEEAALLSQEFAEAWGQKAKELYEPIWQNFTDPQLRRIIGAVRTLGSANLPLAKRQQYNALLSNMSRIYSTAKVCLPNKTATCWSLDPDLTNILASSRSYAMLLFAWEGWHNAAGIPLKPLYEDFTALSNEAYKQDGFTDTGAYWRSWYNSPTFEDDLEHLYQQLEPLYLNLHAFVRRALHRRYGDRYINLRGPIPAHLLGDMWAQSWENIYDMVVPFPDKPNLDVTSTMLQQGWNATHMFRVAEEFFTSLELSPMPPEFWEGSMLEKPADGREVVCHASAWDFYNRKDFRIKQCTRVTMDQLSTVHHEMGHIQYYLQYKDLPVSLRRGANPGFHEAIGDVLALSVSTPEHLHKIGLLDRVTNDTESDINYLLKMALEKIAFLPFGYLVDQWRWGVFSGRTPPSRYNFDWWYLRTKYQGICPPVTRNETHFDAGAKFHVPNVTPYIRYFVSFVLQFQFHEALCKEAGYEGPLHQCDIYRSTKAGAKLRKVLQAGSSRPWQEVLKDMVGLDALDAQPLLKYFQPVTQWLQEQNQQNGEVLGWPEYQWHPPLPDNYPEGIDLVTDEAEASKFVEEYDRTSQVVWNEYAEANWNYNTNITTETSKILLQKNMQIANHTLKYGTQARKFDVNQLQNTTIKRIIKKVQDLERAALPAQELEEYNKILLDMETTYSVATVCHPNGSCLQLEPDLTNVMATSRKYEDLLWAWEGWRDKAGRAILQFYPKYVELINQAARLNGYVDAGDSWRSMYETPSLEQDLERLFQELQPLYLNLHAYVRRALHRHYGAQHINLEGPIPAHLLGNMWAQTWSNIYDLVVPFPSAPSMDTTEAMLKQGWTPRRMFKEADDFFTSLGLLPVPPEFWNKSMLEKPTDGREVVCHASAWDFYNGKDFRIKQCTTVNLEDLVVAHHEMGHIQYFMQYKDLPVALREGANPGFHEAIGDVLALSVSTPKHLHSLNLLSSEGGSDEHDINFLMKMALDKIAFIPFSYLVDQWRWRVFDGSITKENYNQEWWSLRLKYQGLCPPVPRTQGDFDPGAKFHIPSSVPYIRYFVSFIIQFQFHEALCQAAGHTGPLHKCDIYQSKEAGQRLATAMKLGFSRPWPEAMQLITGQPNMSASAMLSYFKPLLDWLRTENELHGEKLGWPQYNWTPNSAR

pIC50 (Human urinary ACE): 8.68
Structure (SMILES): C[C@H](CSC(=O)[C@@H](N)CCC(=O)O)C(=O)N1CCC[C@H]1C(=O)O [N^α -[3-(L-α-glutamylthio)-2-D-methyl-propanoyl]-L-proline]

Structure (SMILES): C[C@H](CSSC[C@@H](C)C(=O)N1CCC[C@H]1C(=O)O)C(=O)N1CCC[C@H]1C(=O)O [disulfide]
inhibitory activity of disulfide (dimer of SQ14225) (ACE [1]): largely inactive as an inhibitor

Structure (SMILES): C[C@H](CS)C(=O)N1CCCC1C(=O)O (stereo in doubt) [SQ14225, D-3-mercapto-2-methylpropanoyl-L-proline]
stability in normal gastric and intestinal environments (ACE [2]): sufficiently stable in the normal gastric and intestinal environments of most patients
